# Measured values from patent US6395745B1, “Alkaloid halide salts of swainsonine and methods of use” (priority 1997, dated 2002).
# Key:
# [1] = Solubility in distilled water at room temperature; format: physicochemical
# Procedure: The melting point of the clear swainsonine hydrochloride crystal (prism) was 190-191° C. The solubility of swainsonine hydrochloride in distilled water at room temperature was about 3 g/ml, in contrast to the solubility of swainsonine free base, which is about 0.8 g/ml (see Table 5).
# [2] = Accelerated stability of stressed solid samples, percentage remaining by HPLC; format: physicochemical
# Description: Samples of swainsonine free base synthesized using synthetic routes developed by Dr. David Dime (Toronto Research Chemicals, Toronto, Ontario) and Dr. William Pearson (University of Michigan, Ann Arbor, Mich.), were recrystallized to obtain either the hydrochloride salt, the hydrobromide salt or the free base of swainsonine. Samples were weighed and exposed to the conditions described below.
# To model long-term stability or shelf life, various conditions were used to accelerate the decomposition process. Samples of crystalline prism swainsonine hydrochloride salt and swainsonine free base (a white, fluffy powder obtained from swainsonine hydrochloride were recrystallized from chloroform-methanol-diethyl ether) were weighed and exposed to conditions described below (stressed samples). Unstressed samples were prepared at 1 mg/ml concentration and chromatographed in sextuplicate on each run. After the indicated time interval each stressed sample was diluted with mobile phase at the same concentration as the unstressed sample. The percentage remaining swainsonine hydrochloride or swainsonine free base was calculated based on the percentage of either the hydrochloride or the free base in the unstressed sample.
# The conditions included (a) UV light for 7 days; (b) 105° C. with atmospheric oxygen for seven days (*=average of two samples); (c) 105° C. under nitrogen for seven days (*=average of two samples); (d) 70° C. with low humidity for seven days; and (e) 40° C. with 75% relative humidity for seven days. Other tests include (f) UV for 24 hours; (g) 100° C. aqueous solution for two hours; (h) aqueous acidic treatment for 24 hours; (i) aqueous alkali treatment for 4 hours; and (j) (aqueous) 3% hydrogen peroxide for 4 hours. […] The physical properties of swainsonine hydrochloride compared to the free base and swainsonine hydrobromide, and swainsonine hydrofluoride are shown in Table 5.
# [3] = target: T1, lysosomal mannosidase (Homo sapiens, UniProt O00754); assay: Inhibition of lysosomal mannosidase in vitro; format: biochemical; conditions: pH 5.0, 60 min at 37° C.
# T1 sequence (O00754 50-1011): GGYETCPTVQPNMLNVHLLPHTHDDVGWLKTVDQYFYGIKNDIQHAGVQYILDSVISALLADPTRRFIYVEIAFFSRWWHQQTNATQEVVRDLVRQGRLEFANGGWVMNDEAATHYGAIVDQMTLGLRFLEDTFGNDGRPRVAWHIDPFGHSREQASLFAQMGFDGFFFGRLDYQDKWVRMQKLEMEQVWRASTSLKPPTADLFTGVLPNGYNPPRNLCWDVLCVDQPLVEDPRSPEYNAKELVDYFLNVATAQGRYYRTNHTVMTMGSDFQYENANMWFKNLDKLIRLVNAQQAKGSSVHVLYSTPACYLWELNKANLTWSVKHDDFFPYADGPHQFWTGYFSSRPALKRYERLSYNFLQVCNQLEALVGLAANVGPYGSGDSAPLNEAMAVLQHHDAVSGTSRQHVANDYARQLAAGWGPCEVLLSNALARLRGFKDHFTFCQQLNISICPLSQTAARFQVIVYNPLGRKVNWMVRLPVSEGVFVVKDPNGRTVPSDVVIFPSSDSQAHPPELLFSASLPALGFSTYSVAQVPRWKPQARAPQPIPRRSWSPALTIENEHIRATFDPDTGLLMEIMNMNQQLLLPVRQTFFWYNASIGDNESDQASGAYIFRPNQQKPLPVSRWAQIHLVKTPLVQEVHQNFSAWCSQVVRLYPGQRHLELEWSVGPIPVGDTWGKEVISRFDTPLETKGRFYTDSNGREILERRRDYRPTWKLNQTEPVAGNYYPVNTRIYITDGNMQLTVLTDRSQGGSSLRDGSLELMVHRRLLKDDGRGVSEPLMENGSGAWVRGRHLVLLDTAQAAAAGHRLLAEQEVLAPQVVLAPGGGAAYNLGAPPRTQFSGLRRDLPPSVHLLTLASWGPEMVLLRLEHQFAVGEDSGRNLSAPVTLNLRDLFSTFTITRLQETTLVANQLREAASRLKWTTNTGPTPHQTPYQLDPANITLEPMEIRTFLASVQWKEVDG
# Procedure: The effects of the compounds of the invention on lysosomal mannosidase were measured by adding (10 μl) of the compounds into 96 well Elisa plates followed by the addition of 200 mM sodium acetate pH 5.0 and 25 μl of 10 mM p-nitrophenyl α-D-mannospyranoside. 15 μl of lysosomal mannosidase ( about 8 mM/mL) was added to each well and the plates were incubated for 60 min at 37° C. The reaction was stopped by the addition of 50 μl of 0.5M sodium carbonate and formation of p-nitrophenol was measured with a plate set at 405.
# [4] = system: SP1.A3a mouse mammary adenocarcinoma; assay: SP1.A3a tumor growth in mice, Alzet mini-osmotic pump; format: in vivo, CBA/J mice; conditions: for difference in mean tumour volume between control and treatment groups: 0.5 mg/kg/day via osmotic pump over 28 days
# Procedure: A metastatic subclone of the SP1 tumor line (A3a), mouse mammary adenocarcinoma was maintained in exponential growth in RPMI 1640 containing 10% FBS. The cells were harvested and resuspended at 1×10^6/ml or 1×10^7/ml in PBS and 0.1 ml containing 1×10^5 injected S.C. into the right flank of 7 week old female CBA/J mice (Jackson Laboratories). Alzet mini-osmotic pumps were implanted subcutaneously, on the opposite side of anesthetized animals. The pumps were primed to deliver saline (control) or 0.5 mg/kg/day of swainsonine hydrochloride over 28 days. Mice were monitored for the appearance of a palpable tumour and subsequent tumor growth was measured using bernier callipers. Tumor weights and the number of lung metastasis were measured on day 42.
# [5] = system: STAT3; assay: STAT3 level in mice (Western blot); format: in vivo, DBA/2 mice; conditions: 20 μg/day ip, spleen
# Procedure: To measure the level and activation of STATs, DBA/2 mice are treated for 6-9 days with 20 μg/mouse/day of swainsonine hydrochloride followed by a single intraperitoneal (i.p) injection of either sterile saline or 100 μg of poly IC (i.e., dsRNA, a surrogate for virus) in sterile saline. Two hours later an optimal time for STAT activation, spleens of the mice are homogenized and cytosolic and nuclear cell extracts are prepared. STAT protein levels are measured in the cytosolic and nuclear fractions by Western blot analysis. STAT phosphorylation (i.e. activation) is measured following immunoprecipitation using anti-phosphotyrosine antibodies.
structure (smiles),measurement,setting,value
"Cl.O[C@H]1[C@H]2[C@H](O)CCCN2C[C@@H]1O [swainsonine hydrochloride, (−)-(1S,2S,8R,8aR)-1,2,8-trihydroxyoctahydro-indolizidine hydrochloride salt]",solubility in distilled water at room temperature,[1]; Table 5,3 g/mL
same,solubility in distilled water at room temperature,"[1]; distilled water, room temperature",about 3 g/ml
same,"percentage remaining, condition (e)",[2]; 40° C. with 75% relative humidity for seven days,101.9%
same,"percentage remaining, condition (d)",[2]; 70° C. with low humidity for seven days,103.2%
same,"percentage remaining, condition (c)",[2]; 105° C. under nitrogen for seven days (*=average of two samples),101.2%
same,"percentage remaining, condition (b)",[2]; 105° C. with atmospheric oxygen for seven days (*=average of two samples),100.9%
same,"percentage remaining, condition (a)",[2]; UV light for 7 days,99.4%
same,IC50,[3],45 ± 10 nM
same,difference in mean tumour volume between control and treatment groups,[4]; day 29 as printed,27%
same,difference in mean tumour volume between control and treatment groups,[4]; day 32,35%
same,difference in mean tumour volume between control and treatment groups,[4]; day 42,32%
same,mean tumour weight,"[4]; 0.5 mg/kg/day via osmotic pump, 42 day sacrifice, control 7.35 g",4.87 g
same,"incidence of lung metastasis, average","[4]; 0.5 mg/kg/day via osmotic pump, day 42 sacrifice, control 1.8",0.25 nodules/mouse
same,STAT3 cytosolic protein levels,[5],remained unchanged
